In general, IC50 refers to the concentration that gives 50% inhibition. Usually AUC(0-t) stands for exposure summed from dosing to a finite time, without extrapolation to infinity. A higher AUC(0-t) goes with high exposure. A word on the Tmax: it is the time from dosing to the highest level. Usually Cmax stands for the maximum level reached in the sampled fluid or tissue. As usually defined, the clearance is a measure of how efficiently the substance is removed, as volume per time. In general, half-life refers to how long it takes for the measured level to halve. Low readings indicate fast loss, high ones slow loss. A word on the bioavailability: it is the share of a dose that reaches the circulation, judged against a reference dose that is usually intravenous. Low readings indicate little systemic uptake, high ones much systemic uptake. The term AUC(0-inf) denotes the area under the concentration-time curve extrapolated to infinity. Low values mean less exposure, high ones more exposure. A word on the Papp B→A: it is how fast a substance crosses the layer from the basolateral side. What is called Vd is the apparent volume that relates the amount in the body to the concentration in plasma or blood. As a reminder, the efflux ratio is the permeability from basolateral to apical divided by that in the opposite direction, in the common usage. What is called Papp A→B is how fast a substance crosses the layer from the apical side.

In data set [1] the target is Tryptophan 2,3-dioxygenase (Homo sapiens) (UniProt P48775). Briefly: Inhibition of human recombinant TDO assessed as reduction in N-formylkynurenine formation using L-tryptophan as substrate at 1 uM preincubated for 30 mins followed by substrate addition and measured after 20 mins by SpectraMax microplate reader analysis. Conditions: time 50.0 min.
A further data set relates to CT26. Briefly: cells. Particulars: Mus musculus, CT26, 24 h.
The next data set deals with HeLa. Nature of the data set: cells. Conditions: Homo sapiens, 24 h.
The nature of data set [2]: Anti-tumor efficacy against mouse LLC cells implanted in C57BL/6 mouse assessed as tumor growth inhibition at 100 mg/kg, po bid treated for 21 days relative to control. Particulars: Lewis lung carcinoma, 504 h, time 21 day, read-out: TGI. Format: functional.
The next data set in a line: cells. Particulars: Mus musculus, Lung cancer cell line, 24 h.
The subject of a further data set is HCT-116. Briefly: cells. Particulars: Homo sapiens, HCT-116, 24 h.
For data set [3], the target named is T1, Indoleamine 2,3-dioxygenase 2 (Homo sapiens) (UniProt Q6ZQW0).
T1 sequence (whole entry): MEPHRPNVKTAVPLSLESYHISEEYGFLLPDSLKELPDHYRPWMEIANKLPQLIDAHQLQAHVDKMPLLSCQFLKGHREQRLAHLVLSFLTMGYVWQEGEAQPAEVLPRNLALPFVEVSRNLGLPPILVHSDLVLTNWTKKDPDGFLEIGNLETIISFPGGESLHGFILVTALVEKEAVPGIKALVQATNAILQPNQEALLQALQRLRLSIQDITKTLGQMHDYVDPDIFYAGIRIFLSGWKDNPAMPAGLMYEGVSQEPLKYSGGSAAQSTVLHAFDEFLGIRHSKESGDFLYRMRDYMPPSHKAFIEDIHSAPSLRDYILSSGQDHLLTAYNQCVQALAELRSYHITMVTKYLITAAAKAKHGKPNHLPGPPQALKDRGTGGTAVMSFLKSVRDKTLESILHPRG
Briefly: Inhibition of human recombinant IDO2 assessed as reduction in N-formylkynurenine formation using L-tryptophan as substrate at 1 uM preincubated for 30 mins followed by substrate addition and measured after 20 mins by SpectraMax microplate reader analysis. Particulars: time 50.0 min.

A short description of data set [4]: Toxicity in C57BL/6 mouse implanted with mouse LLC cells assessed as kidney function by measuring change in BUN level at 100 to 200 mg/kg, po bid treated for 21 days […]. Format: organism-based, Lewis lung carcinoma. Conditions: in vivo, 504 h, dose 100-200 mg/kg, time 21 day.
Data set [5] in a line: AUC (0 to t) in Sprague-Dawley rat at 25 mg/kg, po by LC-MS/MS analysis. More on the design: dose 25 mg/kg, route po. Particulars: in vivo. It is filed as ADME, organism-based.
Data set [6] in a line: Toxicity in C57BL/6 mouse implanted with mouse LLC cells assessed as pathological changes in kidney at 100 to 200 mg/kg, po bid treated for 21 days by H and E staining assay. It is filed as organism-based, Lewis lung carcinoma. Conditions: in vivo, 504 h, dose 100-200 mg/kg, time 21 day.
A short description of data set [7]: Tmax in Sprague-Dawley rat at 25 mg/kg, po by LC-MS/MS analysis. It is filed as ADME, organism-based. Particulars: in vivo.
Data set [8] in a line: Toxicity in C57BL/6 mouse implanted with mouse LLC cells assessed as pathological changes in spleen at 100 to 200 mg/kg, po bid treated for 21 days by H and E staining assay. It is filed as organism-based, Lewis lung carcinoma. Conditions: in vivo, 504 h, dose 100-200 mg/kg, time 21 day.
Data set [9] in a line: Tmax in Sprague-Dawley rat at 5 mg/kg, iv by LC-MS/MS analysis. Particulars: in vivo. It is filed as ADME, organism-based.
Data set [10] can be described thus: Toxicity in C57BL/6 mouse implanted with mouse LLC cells assessed as pathological changes in liver at 100 to 200 mg/kg, po bid treated for 21 days by H and E staining assay. It is filed as organism-based, Lewis lung carcinoma. Particulars: in vivo, 504 h, dose 100-200 mg/kg, time 21 day.
A short description of data set [11]: Toxicity in C57BL/6 mouse implanted with mouse LLC cells assessed as liver function by measuring change in AST level at 100 to 200 mg/kg, po bid treated for 21 days […]. Conditions: in vivo, 504 h, dose 100-200 mg/kg, time 21 day. It is filed as organism-based, Lewis lung carcinoma.
Data set [12] has as its target T2, Indoleamine 2,3-dioxygenase 1 (Homo sapiens, UniProt P14902). Nature of the data set: Inhibition of human recombinant IDO1 assessed as reduction in N-formylkynurenine formation using L-tryptophan as substrate preincubated for 30 mins followed by substrate addition and measured after 20 mins by SpectraMax microplate reader analysis.
Data set [13] can be described thus: Cmax in Sprague-Dawley rat at 5 mg/kg, iv by LC-MS/MS analysis. Format: ADME, organism-based. More on the design: dose 5 mg/kg, route iv. Particulars: in vivo.
Data set [14] is described as follows: Cmax in Sprague-Dawley rat at 25 mg/kg, po by LC-MS/MS analysis. Format: ADME, organism-based. More on the design: dose 25 mg/kg, route po. Particulars: in vivo.
The nature of data set [15]: Plasma clearance in Sprague-Dawley rat at 5 mg/kg, iv by LC-MS/MS analysis. Format: ADME, organism-based.
Data set [16] in a line: AUC (0 to t) in Sprague-Dawley rat at 5 mg/kg, iv by LC-MS/MS analysis. It is filed as ADME, organism-based. Details: dose 5 mg/kg, route iv. Conditions: in vivo.
Data set [17] is described as follows: Toxicity in C57BL/6 mouse implanted with mouse LLC cells assessed as change in body weight at 100 to 200 mg/kg, po bid treated for 21 days. Format: organism-based, Lewis lung carcinoma. Conditions: in vivo, 504 h, dose 100-200 mg/kg, time 21 day.
The nature of data set [18]: Half life in Sprague-Dawley rat at 5 mg/kg, iv by LC-MS/MS analysis. Conditions: in vivo. It is filed as ADME, organism-based.
Data set [19] is described as follows: Oral bioavailability in Sprague-Dawley rat at 25 mg/kg by LC-MS/MS analysis. Conditions: in vivo. Format: ADME, organism-based.
Data set [20] can be described thus: Half life in Sprague-Dawley rat at 25 mg/kg, po by LC-MS/MS analysis. It is filed as ADME, organism-based. Conditions: in vivo.
Data set [21] is described as follows: AUC (0 to infinity) in Sprague-Dawley rat at 25 mg/kg, po by LC-MS/MS analysis. Details: dose 25 mg/kg, route po. Format: ADME, organism-based. Conditions: in vivo.
Data set [22] can be described thus: Anti-tumor efficacy against mouse LLC cells implanted in C57BL/6 mouse assessed as tumor growth inhibition at 200 mg/kg, po bid treated for 21 days relative to control. It is filed as functional. Conditions: Lewis lung carcinoma, 504 h, time 21 day, read-out: TGI.
Data set [23] can be described thus: Toxicity in C57BL/6 mouse implanted with mouse LLC cells assessed as liver function by measuring change in total protein level at 100 to 200 mg/kg, po bid treated for 21 days […]. Format: organism-based, Lewis lung carcinoma. Particulars: in vivo, 504 h, dose 100-200 mg/kg, time 21 day.
The nature of data set [24]: Toxicity in C57BL/6 mouse implanted with mouse LLC cells assessed as liver function by measuring change in ALT level at 100 to 200 mg/kg, po bid treated for 21 days […]. It is filed as organism-based, Lewis lung carcinoma. Conditions: in vivo, 504 h, dose 100-200 mg/kg, time 21 day.
Data set [25] is described as follows: Apparent permeability of the compound across basolateral to apical side in dog MDCKII cells measured for 2 hrs by LC-MS/MS analysis. Particulars: MDCK. Format: ADME, cell-based, Canis lupus familiaris, MDCK-II.
The nature of data set [26]: Volume of distribution in Sprague-Dawley rat at 5 mg/kg, iv by LC-MS/MS analysis. Format: ADME, organism-based. Particulars: in vivo.
A short description of data set [27]: Toxicity in C57BL/6 mouse implanted with mouse LLC cells assessed as pathological changes in lung at 100 to 200 mg/kg, po bid treated for 21 days by H and E staining assay. Format: organism-based, Lewis lung carcinoma. Particulars: in vivo, 504 h, dose 100-200 mg/kg, time 21 day.
A further data set is described as follows: in vitro. Particulars: dog, MDCK.
A short description of data set [28]: AUC (0 to infinity) in Sprague-Dawley rat at 5 mg/kg, iv by LC-MS/MS analysis. It is filed as ADME, organism-based. More on the design: dose 5 mg/kg, route iv. Conditions: in vivo.
For data set [29], the target named is T2, Indoleamine 2,3-dioxygenase 1. Nature of the data set: Inhibition of IDO1 in IFN-gamma-induced human HeLa cells assessed as reduction in N-formylkynurenine formation using L-tryptophan as substrate preincubated for 24 hrs followed by substrate addition and measured after 30 mins by SpectraMax microplate reader analysis. Format: cell-based.
Data set [30] in a line: Toxicity in C57BL/6 mouse implanted with mouse LLC cells assessed as mortality at 100 to 200 mg/kg, po bid treated for 21 days. Format: organism-based, Lewis lung carcinoma. Conditions: in vivo, 504 h, dose 100-200 mg/kg, time 21 day.
Data set [31] can be described thus: Apparent permeability of the compound across apical to basolateral side in dog MDCK-II cells measured for 2 hrs by LC-MS/MS analysis. Format: ADME, cell-based, Canis lupus familiaris.
A short description of data set [32]: Toxicity in C57BL/6 mouse implanted with mouse LLC cells assessed as pathological changes in heart at 100 to 200 mg/kg, po bid treated for 21 days by H and E staining assay. Conditions: in vivo, 504 h, dose 100-200 mg/kg, time 21 day. Format: organism-based, Lewis lung carcinoma.

Active and inactive are the calls of the source. The rule behind the calls is not given here.

Tryptophan 2,3-dioxygenase (Homo sapiens), sequence (P48775 whole entry, looked up): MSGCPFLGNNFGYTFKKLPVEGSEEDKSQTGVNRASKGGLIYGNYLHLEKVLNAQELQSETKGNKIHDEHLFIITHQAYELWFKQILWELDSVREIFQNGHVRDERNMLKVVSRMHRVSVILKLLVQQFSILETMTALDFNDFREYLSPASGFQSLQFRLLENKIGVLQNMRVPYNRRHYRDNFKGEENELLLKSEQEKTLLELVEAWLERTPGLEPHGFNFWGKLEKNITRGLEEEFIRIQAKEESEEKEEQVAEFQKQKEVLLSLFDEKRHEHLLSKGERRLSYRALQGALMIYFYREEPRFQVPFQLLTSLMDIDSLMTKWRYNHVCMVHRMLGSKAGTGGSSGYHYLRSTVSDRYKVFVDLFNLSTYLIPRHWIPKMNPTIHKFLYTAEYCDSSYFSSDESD
T2 sequence (P14902 whole entry): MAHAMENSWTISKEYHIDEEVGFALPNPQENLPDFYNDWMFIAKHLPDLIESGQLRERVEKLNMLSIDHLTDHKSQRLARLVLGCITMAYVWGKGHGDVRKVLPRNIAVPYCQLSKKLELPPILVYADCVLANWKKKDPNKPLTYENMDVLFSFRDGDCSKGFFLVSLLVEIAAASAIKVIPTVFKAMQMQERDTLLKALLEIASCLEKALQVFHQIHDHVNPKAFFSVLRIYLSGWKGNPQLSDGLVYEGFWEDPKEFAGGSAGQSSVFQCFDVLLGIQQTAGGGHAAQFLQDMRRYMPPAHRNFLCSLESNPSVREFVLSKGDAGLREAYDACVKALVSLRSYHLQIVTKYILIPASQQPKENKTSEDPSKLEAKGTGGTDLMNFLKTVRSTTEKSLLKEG

With `NS(=O)(=O)NCCNc1nonc1/C(=N/O)Nc1ccc(F)c(Br)c1` [EPACADOSTAT], the inhibition entry in [1] and in data set [3] was “inactive” throughout. Also, the half-inhibitory concentration (IC50) with CT26 was 64.6 µM; in the data set with HeLa, 59.8 µM; in “cells”, above 50 µM; in the data set on HCT-116 it was 36.3 µM. In data set [2], the inhibition in vivo at 100 mg/kg was determined as 38.8%.
Turning to `CCNC(=O)Nc1nonc1/C(=N/O)Nc1ccc(F)c(Br)c1`, the Activity result in data set [4], in data set [6], in data set [8], in [10], in data set [11] and in data set [17] was “Non-Toxic” in each case. In addition, the Activity result in data set [23], in [24], in data set [27], in data set [30] and in data set [32] was “Non-Toxic” throughout. Further, the figures for the AUC(0-t) in [5] and in [16] were 2220 ng·h/mL and 2640 ng·h/mL, respectively. Also, the inhibition entry in data set [1] and in data set [3] was “inactive” each time. Also, the Tmax in data set [7] was found to be 1 h; in data set [9] it was 1.98 min. In addition, the IC50 with CT26 was 34.9 µM; in data set [12] it was 0.0674 µM; with HeLa, 46.1 µM; in “cells” it was above 50 µM; in the data set with HCT-116 it was 19.6 µM; in data set [29], 0.0176 µM. Further, the Cmax in data set [13] was found to be 10000 ng/mL; in data set [14], 1690 ng/mL. Also, the inhibition in vivo at 100 mg/kg in data set [2] was 41.5%. In addition, the clearance in [15] was 32.3 mL/min/kg. In addition, the values for the half-life in [18] and in [20] were 1.62 h and 1.31 h, respectively. This compound gave a bioavailability in data set [19] of 16.8%. Besides, the AUC(0-inf) in data set [21] was 2250 ng·h/mL; in data set [28], 2690 ng·h/mL. The inhibition in vivo at 200 mg/kg in [22] was 53.1%. For the same compound, the Papp B→A at 2 h in data set [25] is 22.6 ×10⁻⁶ cm/s. The Vd in data set [26] worked out at 4.01 L/kg. Besides, the efflux ratio at 2 h in the data set “in vitro” worked out at 0.58. Besides, in data set [31], the apical-to-basolateral permeability (Papp A→B) at 2 h is 38.6 ×10⁻⁶ cm/s.
